# Active and inactive are the calls of the source. No cut-off for these calls is given here.
# Assays:
# HGC-27 [1] = assay: Induction of apoptosis in HGC27 cells assessed as apoptotic cells after 24 hrs by Annexin-V-FITC/propidium iodide staining-based flow cytometry; format: functional, cell-based; conditions: Homo sapiens
# HGC-27 [2] = assay: Induction of apoptosis in HGC27 cells assessed as early apoptotic cells at 2 uM after 24 hrs by Annexin-V-FITC/propidium iodide staining-based flow cytometry (reference value: 6.7%); format: functional, Homo sapiens
# HGC-27 [3] = assay: Induction of apoptosis in HGC27 cells assessed as late apoptotic cells at 2 uM after 24 hrs by Annexin-V-FITC/propidium iodide staining-based flow cytometry (reference value: 6.7%); format: functional, Homo sapiens
# HGC-27 [4] = assay: Induction of apoptosis in HGC27 cells assessed as necrotic cells at 2 uM after 24 hrs by Annexin-V-FITC/propidium iodide staining-based flow cytometry; format: functional, Homo sapiens
# [5] = (§1) Cytotoxicity against HGC27 cells after 24 hrs by MTT assay; format: functional, cell-based; conditions: Homo sapiens, HGC-27, 24 h
# HeLa [6] = assay: Cytotoxicity against human HeLa cells assessed as inhibition of cell viability at 20 uM after 24 hrs by MTT assay; format: functional, cell-based
# HGC-27 [7] = assay: Cytotoxicity against HGC27 cells assessed as inhibition of cell viability at 20 uM after 24 hrs by MTT assay; format: functional, cell-based; conditions: Homo sapiens
# HeLa [8] = assay: Cytotoxicity against human HeLa cells after 24 hrs by MTT assay; format: functional, cell-based
# HGC-27 [9] = assay: Cytotoxicity against HGC27 cells assessed as inhibition of cell viability at 100 uM after 24 hrs by MTT assay; format: functional, cell-based; conditions: Homo sapiens
# HeLa [10] = assay: Cytotoxicity against human HeLa cells assessed as inhibition of cell viability at 100 uM after 24 hrs by MTT assay; format: functional, cell-based
# HGC-27 [11] = assay: Induction of apoptosis in HGC27 cells assessed as apoptotic cells at 2.5 uM after 24 hrs by Annexin-V-FITC/propidium iodide staining-based flow cytometry (reference value: 6.7%); format: functional, Homo sapiens
# HGC-27 [12] = assay: Induction of apoptosis in HGC27 cells assessed as increase in necrotic cells at 2 uM co-treated with autophagy inhibitor 3-MA after 24 hrs by Annexin-V-FITC/propidium iodide staining-based flow cytometry; format: functional, cell-based; conditions: Homo sapiens
# MDCK [13] = assay: Cytotoxicity against MDCK cells by MTT assay; format: cell-based; conditions: Canis lupus familiaris
# HGC-27 [14] = assay: Induction of apoptosis in HGC27 cells assessed as increase in necrotic cells at 2 uM co-treated with autophagy inhibitor chloroquine after 24 hrs by Annexin-V-FITC/propidium iodide staining-based flow cytometry; format: functional, cell-based; conditions: Homo sapiens
# [15] = Cell cycle arrest in HGC27 cells assessed as accumulation at G2/GM phase after 24 hrs at 500 nM by propidium idoide staining based flow cytometric analysis; format: functional; conditions: Homo sapiens, HGC-27
# [16] = Cytotoxicity against HGC27 cells after 48 hrs by MTT assay; format: functional, cell-based; conditions: Homo sapiens, HGC-27, 48 h
# HGC-27 [17] = assay: Induction of apoptosis in HGC27 cells assessed as reduction in mitochondrial membrane potential at 2 and 8 uM after 24 hrs by JC-1 staining based flow cytometric analysis; format: functional, cell-based; conditions: Homo sapiens
# Vero [18] = assay: Cytotoxicity against African green monkey Vero cells by MTT assay; format: cell-based; conditions: Chlorocebus sabaeus
# HEK293 = assay: Cytotoxicity against HEK293 cells by MTT assay; format: cell-based; conditions: Homo sapiens
# HGC-27 [19] = assay: Induction of apoptosis in HGC27 cells at 8 uM after 24 hrs in presence of pan-caspase inhibitor Z-VAD-FMK by Annexin-V-FITC/propidium iodide staining-based flow cytometry; format: functional, cell-based; conditions: Homo sapiens
# HGC-27 [20] = assay: Induction of apoptosis in HGC27 cells at 2 uM co-treated with autophagy inhibitor chloroquine after 24 hrs by Annexin-V-FITC/propidium iodide staining-based flow cytometry; format: functional, cell-based; conditions: Homo sapiens
# HGC-27 [21] = assay: Induction of autophagy in HGC27 cells assessed as increase in LC3-2 level after 24 hrs by Western blotting method in presence of lysosomal dysfunction inducer PI; format: functional, cell-based; conditions: Homo sapiens
# HGC-27 [22] = assay: Induction of apoptosis in HGC27 cells assessed as apoptotic cells at 1 uM after 24 hrs by Annexin-V-FITC/propidium iodide staining-based flow cytometry (reference value: 6.7%); format: functional, Homo sapiens
# HGC-27 [23] = assay: Induction of apoptosis in HGC27 cells assessed as apoptotic cells at 8 uM after 24 hrs by Annexin-V-FITC/propidium iodide staining-based flow cytometry (reference value: 6.7%); format: functional, Homo sapiens
# [24] = Cytotoxicity against HGC27 cells assessed as cellular ATP level after 24 hrs by SRB assay; format: functional, cell-based; conditions: Homo sapiens, HGC-27, 24 h
# HGC-27 [25] = assay: Induction of apoptosis in HGC27 cells assessed as necrotic cells at 8 uM after 24 hrs in presence of cathepsin-B inhibitor-3 by Annexin-V-FITC/propidium iodide staining-based flow cytometry; format: functional, cell-based; conditions: Homo sapiens
# [26] = Cytotoxicity against human U87 cells by MTT assay; format: functional, cell-based, U-87MG ATCC; conditions: U-87 MG
# HGC-27 [27] = assay: Induction of apoptosis in HGC27 cells at 8 uM after 24 hrs in presence of caspase 9 inhibitor Z-LEHD-FMK by Annexin-V-FITC/propidium iodide staining-based flow cytometry; format: functional, cell-based; conditions: Homo sapiens
# HGC-27 [28] = assay: Induction of apoptosis in HGC27 cells assessed as necrotic cells at 8 uM after 24 hrs in presence of RIP1 inhibitor necrostatin-1 by Annexin-V-FITC/propidium iodide staining-based flow cytometry; format: functional, cell-based; conditions: Homo sapiens
# [29] = Cell cycle arrest in HGC27 cells assessed as accumulation at G0/G1 phase after 24 hrs at 5 uM by propidium idoide staining based flow cytometric analysis; format: functional; conditions: Homo sapiens, HGC-27
# [30] = Cell cycle arrest in HGC27 cells assessed as decrease in G2/M phase population after 24 hrs at 5 uM by propidium idoide staining based flow cytometric analysis; format: functional; conditions: Homo sapiens, HGC-27
# HGC-27 [31] = assay: Induction of apoptosis in HGC27 cells at 2 uM co-treated with autophagy inhibitor 3-MA after 24 hrs by Annexin-V-FITC/propidium iodide staining-based flow cytometry; format: functional, cell-based; conditions: Homo sapiens
# HGC-27 [32] = assay: Induction of reactive oxygen species formation in HGC27 cells at 1.4 to 24 uM after 5 hrs using DCFH-DA probe by spectrofluorimetry; format: functional, cell-based; conditions: Homo sapiens
# [33] = Cell cycle arrest in HGC27 cells assessed as decrease in S-phase population after 24 hrs at 5 uM by propidium idoide staining based flow cytometric analysis; format: functional; conditions: Homo sapiens, HGC-27
# HGC-27 [34] = assay: Induction of autophagy in HGC27 cells assessed as increase in LC3-2 level after 24 hrs by Western blotting method; format: functional, cell-based; conditions: Homo sapiens
# HGC-27 [35] = assay: Induction of apoptosis in HGC27 cells at 8 uM after 24 hrs in presence of cathepsin-B inhibitor-3 by Annexin-V-FITC/propidium iodide staining-based flow cytometry; format: functional, cell-based; conditions: Homo sapiens
# HGC-27 [36] = assay: as §1; format: functional, cell-based; conditions: Homo sapiens
# HGC-27 [37] = assay: Induction of apoptosis in HGC27 cells at 8 uM after 24 hrs in presence of caspase 8 inhibitor Z-IETD-FMK by Annexin-V-FITC/propidium iodide staining-based flow cytometry; format: functional, cell-based; conditions: Homo sapiens
# [38] = Cytotoxicity against human T98 cells by MTT assay; format: functional, cell-based
# Vero [39] = assay: Cytotoxicity against African green monkey Vero cells assessed as cellular ATP level after 24 hrs by SRB assay; format: cell-based; conditions: Chlorocebus sabaeus
# MDCK [40] = assay: Cytotoxicity against MDCK cells assessed as cellular ATP level after 24 hrs by SRB assay; format: cell-based; conditions: Canis lupus familiaris
compound,measurement,setting,value
COc1cccc2c1C(=O)c1c(O)c3c(c(O)c1C2=O)C[C@@](O)(C(=O)CO)C[C@@H]3O[C@H]1C[C@H](N)[C@H](O)[C@H](C)O1 [DOXORUBICIN],Activity,HGC-27 [1],Dose-dependent effect
same,Activity,HGC-27 [2],3.2%
same,Activity,HGC-27 [3],16.7%
same,Activity,HGC-27 [4],32.4%
same,IC50,[5],37.4 µM
O=c1c(Nc2ccc3ccccc3c2-c2c(O)ccc3ccccc23)c(N[C@@H]2CCCC[C@H]2N2CCCCC2)c1=O,inhibition,HeLa [6],inactive
same,IC50,[5],11.1 µM
same,inhibition,HGC-27 [7],Active
same,IC50,HeLa [8],> 20 µM
C=CC1CN2CCC1CC2[C@@H](Nc1c(Nc2cc(C(F)(F)F)cc(C(F)(F)F)c2)c(=O)c1=O)c1ccnc2ccccc12 (some centres not stated),inhibition,HGC-27 [9],Active
same,inhibition,HeLa [6],Active
same,inhibition,HeLa [10],Active
same,IC50,[5],8.12 µM
same,inhibition,HGC-27 [7],Active
same,IC50,HeLa [8],11.3 µM
O=c1c(Nc2cc(F)cc(F)c2)c(N[C@@H](c2ccccc2)C(O)(c2ccccc2)c2ccccc2)c1=O,inhibition,HeLa [6],inactive
same,IC50,[5],3.39 µM
same,inhibition,HGC-27 [7],Active
same,IC50,HeLa [8],> 20 µM
O=c1c(Nc2cc(C(F)(F)F)cc(C(F)(F)F)c2)c(N[C@@H](c2ccccc2)C(O)(c2ccccc2)c2ccccc2)c1=O,Activity,HGC-27 [11],24.7%
same,Activity,HGC-27 [12],Active
same,IC50,MDCK [13],70.2 µM
same,Activity,HGC-27 [14],Active
same,Activity,[15],Active
same,IC50,[16],660 nM
same,Activity,HGC-27 [17],Active
same,IC50,Vero [18],33.4 µM
same,Activity,HGC-27 [1],Dose-dependent effect
same,IC50,HEK293,9.03 µM
same,Activity,HGC-27 [19],Active
same,Activity,HGC-27 [20],Active
same,Activity,HGC-27 [21],Active
same,Activity,HGC-27 [22],2.4%
same,Activity,HGC-27 [23],60.1%
same,IC50,[24],9.74 µM
same,Activity,HGC-27 [25],Active
same,IC50,[26],60.2 µM
same,Activity,HGC-27 [27],inactive
same,Activity,HGC-27 [28],Active
same,Activity,[29],Active
same,Activity,[30],Active
same,Activity,HGC-27 [31],Active
same,Activity,HGC-27 [32],inactive
same,Activity,[33],Active
same,Activity,HGC-27 [34],Active
same,Activity,HGC-27 [35],Active
same,inhibition,HeLa [6],Active
same,inhibition,HeLa [10],Active
same,IC50,[5],1.81 µM
same,Activity,HGC-27 [36],Dose-dependent effect
same,Activity,HGC-27 [37],Active
same,IC50,HeLa [8],34.6 µM
same,IC50,[38],7.15 µM
same,IC50,Vero [39],73.9 µM
same,IC50,MDCK [40],149 µM
C=CC1CN2CCC1CC2[C@@H](Nc1c(Nc2ccc(C(F)(F)F)cc2)c(=O)c1=O)c1ccnc2ccccc12 (some centres not stated),inhibition,HGC-27 [9],Active
same,inhibition,HeLa [6],Active
same,inhibition,HeLa [10],Active
same,IC50,[5],4.53 µM
same,inhibition,HGC-27 [7],Active
same,IC50,HeLa [8],10.8 µM
C=CC1CN2CCC1CC2[C@@H](Nc1c(Nc2cc(C(F)(F)F)cc(C(F)(F)F)c2)c(=O)c1=O)c1ccnc2ccc(OC)cc12 (some centres not stated),inhibition,HGC-27 [9],Active
same,inhibition,HeLa [6],Active
same,inhibition,HeLa [10],Active
same,IC50,[5],8.21 µM
same,inhibition,HGC-27 [7],Active
same,IC50,HeLa [8],15.2 µM
O=c1c(Nc2ccc3ccccc3c2-c2c(O)ccc3ccccc23)c(N[C@@H]2CCCC[C@H]2N2CCCC2)c1=O,inhibition,HeLa [6],inactive
same,IC50,[5],10.8 µM
same,inhibition,HGC-27 [7],Active
same,IC50,HeLa [8],> 20 µM
C=CC1CN2CCC1CC2[C@H](Nc1c(NCc2cc(C(F)(F)F)cc(C(F)(F)F)c2)c(=O)c1=O)c1ccnc2ccccc12 (some centres not stated),inhibition,HGC-27 [9],Active
same,inhibition,HeLa [6],Active
same,inhibition,HeLa [10],Active
same,IC50,[5],3.01 µM
same,inhibition,HGC-27 [7],Active
same,IC50,HeLa [8],12.1 µM
O=c1c(Nc2cc(C(F)(F)F)cc(C(F)(F)F)c2)c(N[C@@H](CO)Cc2ccccc2)c1=O,inhibition,HGC-27 [9],Active
same,inhibition,HeLa [6],inactive
same,inhibition,HeLa [10],Active
same,inhibition,HGC-27 [7],inactive
C=CC1CN2CCC1CC2[C@@H](Nc1c(Nc2ccc(C(F)(F)F)cc2)c(=O)c1=O)c1ccnc2ccc(OC)cc12 (some centres not stated),inhibition,HGC-27 [9],Active
same,inhibition,HeLa [6],inactive
same,inhibition,HeLa [10],Active
same,IC50,[5],12.8 µM
same,inhibition,HGC-27 [7],Active
same,IC50,HeLa [8],> 20 µM
